The text below walks through data of the supplement of paper PMC11061612.

In test [1] the test system is NCI-N87 (Gastric Carcinoma). Briefly: Bliss excess, mean over the matrix (fraction); higher = more synergy. In short, it runs like this: (§1)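 Bliss excess equals the observed combination effect minus the expected value EA + EB − EA·EB, where EA and EB are the effects of each agent alone. Combination Emax is the second-highest inhibition within the matrix. Inhibition was scaled from CellTiter-Glo 2.0 luminescence, with 0 set by vehicle wells and 1 by blank wells, after 72 hours of two-drug dosing of cells plated in 1536-well plates.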

The test system of another test is EW-3 (Ewing's Sarcoma). The test is described as above. In short, it runs like this: as §1
Test [2] deals with SCC-3 (B-Cell Non-Hodgkin's Lymphoma). Described as above. In short, it runs like this:
as §1

The subject of the next test is GOTO (Neuroblastoma). Described as above. In outline: as §1
The next test has as its system U-87-MG (Glioblastoma). The test is described as above. In short, it runs like this:
as §1

The subject of test [3] is SNU-C1 (Colorectal Carcinoma). The description is as above. In outline: as §1
In test [4] the test system is KP-2 (Pancreatic Carcinoma). The test is described as above. In short, it runs like this: as §1
The subject of test [5] is HC-1 (Other Blood Carcinomas). The description is as above. In outline:
as §1

Test [6] relates to NCI-H322M (Lung Adenocarcinoma). The description is as above. In short, it runs like this: as §1
In test [7] the test system is KYSE-50 (Esophageal Squamous Cell Carcinoma). The test is described as above. In short, it runs like this:
as §1

Another test relates to EW-18 (Ewing's Sarcoma). The test is described as above. In short, it runs like this:
as §1

The subject of test [8] is MFE-319 (Endometrial Carcinoma). The test is described as above. In short, it runs like this:
as §1

The subject of test [9] is H-EMC-SS (Chondrosarcoma). Described as above. In outline: as §1
For test [10], the system named is HSC-2 (Oral Cavity Carcinoma). Briefly: combination Emax (second highest fraction inhibited in the dose matrix, 72 h); higher = more inhibition; extreme values may be limits of the assay. In outline:
as §1

Test [11] has as its system OCUM-1 (Gastric Carcinoma). Described as above. In outline: as §1
For a further test, the system named is IMR-5 (Neuroblastoma). The description is as above. In short, it runs like this:
as §1

The test system of the next test is EW-13 (Ewing's Sarcoma). The test is described as above. In short, it runs like this:
as §1

Test [12] concerns BV-173 (Chronic Myelogenous Leukemia). The description is as above. In outline:
as §1

Test [13] has as its system DG-75 (Burkitt's Lymphoma). Described as above. In short, it runs like this: as §1
Test [14] deals with LC4-1 (B-Lymphoblastic Leukemia). Described as above. In short, it runs like this: as §1

In the case of `COc1cc2ncnc(Nc3ccc(F)c(Cl)c3)c2cc1OCCCN1CCOCC1` [Gefitinib] + CC(C)n1c(=O)n(C)c2cnc3cc(F)c(-c4ccc(OCCCN5CCCCC5)nc4)cc3c21 [AZD1390] (first compound max 10 µM, 7x7, partner max 0.3 µM), the Bliss excess in test [1] is -0.064; in the test on EW-3 (Ewing's Sarcoma) it was -0.0347; in test [2], -0.0418; in the test on GOTO (Neuroblastoma) it was -0.07; in the test on U-87-MG (Glioblastoma), -0.0771; in test [3], -0.0507. Besides, the Bliss excess was -0.0438 in test [4]; -0.127 in test [5]; -0.0312 in [6]; -0.0546 in test [7]; -0.0343 in the test on EW-18 (Ewing's Sarcoma); -0.0805 in test [8]. Moreover, the Bliss excess in test [9] was -0.0502. In addition, the “combination Emax” value in test [10] worked out at 0.555; in test [11] it was 0.148; with IMR-5 (Neuroblastoma) it was 0.123; in the test with EW-13 (Ewing's Sarcoma) it was 0.117; in [12], 0.391; in test [13], 0.373. In [14], the “combination Emax” value turned out to be 0.221.
For `CC1(C)CCC(CN2CCN(c3ccc(C(=O)NS(=O)(=O)c4ccc(NCC5CCOCC5)c([N+](=O)[O-])c4)c(Oc4cnc5[nH]ccc5c4)c3)CC2)=C(c2ccc(Cl)cc2)C1` [Venetoclax] + C=CCn1c(=O)c2cnc(Nc3ccc(N4CCN(C)CC4)cc3)nc2n1-c1cccc(C(C)(C)O)n1 [AZD1775] (first compound max 1 µM, partner max 1 µM), the Bliss excess is 0.0552 in [1]; 0.0735 in the test with EW-3 (Ewing's Sarcoma); -0.0024 in test [2]; 0.0047 in the test on GOTO (Neuroblastoma); -0.0456 in the test with U-87-MG (Glioblastoma); -0.0136 in test [3]. Also, the Bliss excess is -0.0068 in [4]; 0.0665 in test [5]; -0.0173 in test [6]; -0.0395 in test [7]; -0.014 in the test with EW-18 (Ewing's Sarcoma); -0.0129 in [8]. Besides, the Bliss excess in test [9] was -0.0532. Moreover, the “combination Emax” value was determined as 0.833 in [10]; 0.653 in [11]; 0.924 in the test on IMR-5 (Neuroblastoma); 0.129 with EW-13 (Ewing's Sarcoma); 0.941 in [12]; 0.833 in [13]. Moreover, in test [14], the “combination Emax” value was determined as 1.
For the compound `CC(=O)Nc1cccc(-n2c(=O)n(C3CC3)c(=O)c3c(Nc4ccc(I)cc4F)n(C)c(=O)c(C)c32)c1` [Trametinib] + Cc1nc(-c2cn3c(n2)-c2ccc(-c4cnn(C(C)(C)C(N)=O)c4)cc2OCC3)n(C(C)C)n1 [Taselisib] (first compound max 1 µM, 7x7, partner max 10 µM), the Bliss excess in [1] was 0.067; in the test on EW-3 (Ewing's Sarcoma) it was 0.046; in test [2] it was 0.206; with GOTO (Neuroblastoma), 0.0482; in the test with U-87-MG (Glioblastoma) it was 0.0848; in [3], -0.0022. Further, the Bliss excess in test [4] stood at 0.192; in test [5], 0.12; in [6] it was 0.0404; in test [7], 0.108; in the test with EW-18 (Ewing's Sarcoma), 0.0163; in [8], 0.0681. For the same compound, the Bliss excess in test [9] was 0.106. Further, the “combination Emax” value in [10] stood at 1; in test [11], 1; with IMR-5 (Neuroblastoma) it was 0.368; in the test on EW-13 (Ewing's Sarcoma) it was 0.262; in test [12] it was 0.854; in test [13] it was 0.307. Besides, the “combination Emax” value in test [14] came to 0.328.
`CC1(C)CCC(CN2CCN(c3ccc(C(=O)NS(=O)(=O)c4ccc(NCC5CCOCC5)c([N+](=O)[O-])c4)c(Oc4cnc5[nH]ccc5c4)c3)CC2)=C(c2ccc(Cl)cc2)C1` [Venetoclax] + Cn1cnc2c(F)c(Nc3ccc(Br)cc3Cl)c(C(=O)NOCCO)cc21 [Selumetinib] (first compound max 1 µM, 7x7, partner max 3 µM): the Bliss excess in [1] is -0.065; in the test on EW-3 (Ewing's Sarcoma), -0.0413; in [2] it was 0.028; in the test with GOTO (Neuroblastoma), -0.0679; in the test on U-87-MG (Glioblastoma), -0.0889; in [3], -0.053. For the same compound, the Bliss excess in test [4] was -0.0177; in test [5], 0.0509; in [6], -0.0124; in [7], -0.0104; with EW-18 (Ewing's Sarcoma), -0.104; in test [8], -0.0034. The Bliss excess in test [9] was -0.0381. Further, the “combination Emax” value is 0.161 in test [10]; 0.918 in test [11]; 0.221 in the test on IMR-5 (Neuroblastoma); 0.213 in the test with EW-13 (Ewing's Sarcoma); 0.906 in [12]; 0.257 in test [13]. The “combination Emax” value in [14] worked out at 1.
As to `CN(CCO)CC[C@H](CSc1ccccc1)Nc1ccc(S(=O)(=O)NC(=O)c2ccc(N3CCC([C@@H](O)c4ccccc4-c4ccc(Cl)cc4)CC3)cc2)cc1S(=O)(=O)C(F)(F)F` [AZD4320] + Cn1cnc2c(F)c(Nc3ccc(Br)cc3Cl)c(C(=O)NOCCO)cc21 [Selumetinib] (first compound max 1 µM, 7x7, partner max 3 µM), the Bliss excess was 0.0201 in test [1]; -0.0118 in the test on EW-3 (Ewing's Sarcoma); 0.0222 in test [2]; 0.13 in the test on GOTO (Neuroblastoma); -0.0117 with U-87-MG (Glioblastoma); 0.0496 in [4]. For the same compound, the Bliss excess was 0.0026 in test [5]; 0.0818 in test [6]; 0.0405 in test [7]; 0.0109 in the test on EW-18 (Ewing's Sarcoma); 0.0645 in test [8]; -0.0378 in test [9]. The “combination Emax” value came out at 0.768 in test [10]; 0.996 in test [11]; 0.994 with IMR-5 (Neuroblastoma); 0.933 in the test on EW-13 (Ewing's Sarcoma); 0.963 in test [12]; 0.206 in test [13]. Moreover, in [14], the “combination Emax” value worked out at 1.
With `COc1nnc2ccc(N3CCC(c4ccc(OCCN5CCN(C)C(=O)[C@H]5C)cc4)CC3)nn12` [AZD5153] + CN(CC[C@H](CSC1=CC=CC=C1)NC2=C(C=C(C=C2)S(=O)(=O)NC(=O)C3=CC=C(C=C3)N4CCC(CC4)[C@H](C5=CC=CC=C5C6=CC=C(C=C6)Cl)O)S(=O)(=O)C(F)(F)F)CCO [AZD4320] (first compound max 1 µM, 7x7, partner max 1 µM), the Bliss excess in test [2] was 0.0235; in the test with GOTO (Neuroblastoma), 0.065; in the test on U-87-MG (Glioblastoma) it was 0.099; in test [4] it was 0.0546; in test [5], -0.0468; in test [6] it was 0.0066. Further, the Bliss excess in test [7] was 0.0999; in the test with EW-18 (Ewing's Sarcoma) it was 0.0033; in test [8] it was -0.0369. Further, the “combination Emax” value was determined as 0.984 with IMR-5 (Neuroblastoma), 0.818 in the test on EW-13 (Ewing's Sarcoma), 0.957 in [12] and 0.881 in [13].
For `CC(=O)c1c(C)c2cnc(Nc3ccc(N4CCNCC4)cn3)nc2n(C2CCCC2)c1=O` [Palbociclib] + CN(CC[C@H](CSC1=CC=CC=C1)NC2=C(C=C(C=C2)S(=O)(=O)NC(=O)C3=CC=C(C=C3)N4CCC(CC4)[C@H](C5=CC=CC=C5C6=CC=C(C=C6)Cl)O)S(=O)(=O)C(F)(F)F)CCO [AZD4320] (first compound max 10 µM, 7x7, partner max 1 µM), the Bliss excess in test [2] was -0.0046; in the test with GOTO (Neuroblastoma), 0.0226; in the test with U-87-MG (Glioblastoma), -0.0528; in test [4] it was -0.0731; in [5], 0.0001; in [6], -0.0711. Also, the figures for the Bliss excess (in [7]; in the test on EW-18 (Ewing's Sarcoma); in test [8]) were -0.0228, -0.0118 and -0.0554, respectively. Further, the “combination Emax” value in the test with IMR-5 (Neuroblastoma) came out at 0.949; in the test with EW-13 (Ewing's Sarcoma), 0.649; in test [12] it was 0.958; in [13] it was 0.735.
Consider `C[C@@H](c1ccc2nccn2c1)n1nnc2ncc(-c3cnn(C)c3)nc21` [Savolitinib] + CN(CC[C@H](CSC1=CC=CC=C1)NC2=C(C=C(C=C2)S(=O)(=O)NC(=O)C3=CC=C(C=C3)N4CCC(CC4)[C@H](C5=CC=CC=C5C6=CC=C(C=C6)Cl)O)S(=O)(=O)C(F)(F)F)CCO [AZD4320] (first compound max 1 µM, 7x7, partner max 1 µM), for which the Bliss excess in [2] is -0.0083; with GOTO (Neuroblastoma) it was 0.0166; in the test on U-87-MG (Glioblastoma), -0.143; in [4], -0.0136; in [5], -0.0254; in [6], -0.0487. The Bliss excess in test [7] is -0.011; in the test on EW-18 (Ewing's Sarcoma), -0.0221; in [8], -0.0736. Further, the “combination Emax” value in the test on IMR-5 (Neuroblastoma) was 0.481; in the test on EW-13 (Ewing's Sarcoma) it was 0.639; in test [12], 0.954; in test [13], 0.057.
